# Active and inactive are the calls of the source. How the calls were made is not given here.
# Tested on: CCRIS mutagenicity, Ames/micronucleus/aberration tests
# Assay: CCRIS mutagenicity studies
# [1] = Test System: AMES SALMONELLA TYPHIMURIUM, Strain/Indicator: TA98, Metabolic Activation: NONE, Method: PREINCUBATION
# [2] = Test System: AMES SALMONELLA TYPHIMURIUM, Strain/Indicator: TA98, Metabolic Activation: NONE, Method: STANDARD PLATE
# [3] = Test System: AMES SALMONELLA TYPHIMURIUM, Strain/Indicator: TA100, Metabolic Activation: NONE, Method: PREINCUBATION
# [4] = Test System: AMES SALMONELLA TYPHIMURIUM, Strain/Indicator: TA100, Metabolic Activation: NONE, Method: STANDARD PLATE
# [5] = Test System: AMES SALMONELLA TYPHIMURIUM, Strain/Indicator: TA1537, Metabolic Activation: NONE, Method: STANDARD PLATE
structure (smiles),measurement,setting,value
O=C1OC2(c3ccccc31)c1cc(I)c(O)c(I)c1Oc1c2cc(I)c(O)c1I,mutagenic call,"Test System: AMES SALMONELLA TYPHIMURIUM, Strain/Indicator: TA97A, Metabolic Activation: NONE, Method: PREINCUBATION",inactive; negative
same,mutagenic call,"Test System: AMES SALMONELLA TYPHIMURIUM, Strain/Indicator: TA97A, Metabolic Activation: RAT CECAL CELL-FREE EXTRACTS, Method: PREINCUBATION",inactive; negative
same,mutagenic call,"Test System: AMES SALMONELLA TYPHIMURIUM, Strain/Indicator: TA97A, Metabolic Activation: RAT, LIVER, S9, AROCLOR 1254, Method: PREINCUBATION",inactive; negative
same,mutagenic call,[1],inactive; negative
same,mutagenic call,[2],inactive; negative
same,mutagenic call,"Test System: AMES SALMONELLA TYPHIMURIUM, Strain/Indicator: TA98, Metabolic Activation: RAT CECAL CELL-FREE EXTRACTS, Method: PREINCUBATION",inactive; negative
same,mutagenic call,"Test System: AMES SALMONELLA TYPHIMURIUM, Strain/Indicator: TA98, Metabolic Activation: RAT, LIVER, S9, AROCLOR 1254, Method: PREINCUBATION",inactive; negative
same,mutagenic call,"Test System: AMES SALMONELLA TYPHIMURIUM, Strain/Indicator: TA98, Metabolic Activation: RAT, LIVER, S9, AROCLOR 1254, Method: STANDARD PLATE",inactive; negative
same,mutagenic call,"Test System: AMES SALMONELLA TYPHIMURIUM, Strain/Indicator: TA98, Metabolic Activation: S9, Method: PREINCUBATION",inactive; negative
same,mutagenic call,[3],inactive; negative
same,mutagenic call,[4],inactive; negative
same,mutagenic call,"Test System: AMES SALMONELLA TYPHIMURIUM, Strain/Indicator: TA100, Metabolic Activation: RAT CECAL CELL-FREE EXTRACTS, Method: PREINCUBATION",inactive; negative
same,mutagenic call,"Test System: AMES SALMONELLA TYPHIMURIUM, Strain/Indicator: TA100, Metabolic Activation: RAT, LIVER, S9, AROCLOR 1254, Method: PREINCUBATION",inactive; negative
same,mutagenic call,"Test System: AMES SALMONELLA TYPHIMURIUM, Strain/Indicator: TA100, Metabolic Activation: RAT, LIVER, S9, AROCLOR 1254, Method: STANDARD PLATE",inactive; negative
same,mutagenic call,"Test System: AMES SALMONELLA TYPHIMURIUM, Strain/Indicator: TA100, Metabolic Activation: S9, Method: PREINCUBATION",inactive; negative
same,mutagenic call,"Test System: AMES SALMONELLA TYPHIMURIUM, Strain/Indicator: TA102, Metabolic Activation: NONE, Method: PREINCUBATION",inactive; negative
same,mutagenic call,"Test System: AMES SALMONELLA TYPHIMURIUM, Strain/Indicator: TA102, Metabolic Activation: RAT CECAL CELL-FREE EXTRACTS, Method: PREINCUBATION",inactive; negative
same,mutagenic call,"Test System: AMES SALMONELLA TYPHIMURIUM, Strain/Indicator: TA102, Metabolic Activation: RAT, LIVER, S9, AROCLOR 1254, Method: PREINCUBATION",inactive; negative
same,mutagenic call,"Test System: AMES SALMONELLA TYPHIMURIUM, Strain/Indicator: TA104, Metabolic Activation: NONE, Method: PREINCUBATION",inactive; negative
same,mutagenic call,"Test System: AMES SALMONELLA TYPHIMURIUM, Strain/Indicator: TA104, Metabolic Activation: RAT CECAL CELL-FREE EXTRACTS, Method: PREINCUBATION",inactive; negative
same,mutagenic call,"Test System: AMES SALMONELLA TYPHIMURIUM, Strain/Indicator: TA104, Metabolic Activation: RAT, LIVER, S9, AROCLOR 1254, Method: PREINCUBATION",inactive; negative
same,mutagenic call,"Test System: AMES SALMONELLA TYPHIMURIUM, Strain/Indicator: TA1535, Metabolic Activation: NONE, Method: STANDARD PLATE",inactive; negative
same,mutagenic call,"Test System: AMES SALMONELLA TYPHIMURIUM, Strain/Indicator: TA1535, Metabolic Activation: RAT, LIVER, S9, AROCLOR 1254, Method: STANDARD PLATE",inactive; negative
same,mutagenic call,[5],inactive; negative
same,mutagenic call,"Test System: AMES SALMONELLA TYPHIMURIUM, Strain/Indicator: TA1537, Metabolic Activation: RAT, LIVER, S9, AROCLOR 1254, Method: STANDARD PLATE",inactive; negative
same,mutagenic call,"Test System: AMES SALMONELLA TYPHIMURIUM, Strain/Indicator: TA1538, Metabolic Activation: NONE, Method: STANDARD PLATE",inactive; negative
same,mutagenic call,"Test System: AMES SALMONELLA TYPHIMURIUM, Strain/Indicator: TA1538, Metabolic Activation: RAT, LIVER, S9, AROCLOR 1254, Method: STANDARD PLATE",inactive; negative
same,mutagenic call,"Test System: MOUSE LYMPHOMA, Strain/Indicator: L5178Y (TK+/TK-), Metabolic Activation: RAT, LIVER, S9, AROCLOR 1254, Method: SUSPENSION/PLATE",inactive; negative
c1ccc2c(c1)OCCOCCOCCOCCO2,mutagenic call,[2],inactive; negative
same,mutagenic call,"Test System: AMES SALMONELLA TYPHIMURIUM, Strain/Indicator: TA98, Metabolic Activation: RAT, LIVER, S-9, AROCLOR 1254, Method: STANDARD PLATE",inactive; negative
same,mutagenic call,[4],inactive; negative
same,mutagenic call,"Test System: AMES SALMONELLA TYPHIMURIUM, Strain/Indicator: TA100, Metabolic Activation: RAT, LIVER, S-9, AROCLOR 1254, Method: STANDARD PLATE",inactive; negative
same,mutagenic call,"Test System: AMES SALMONELLA TYPHIMURIUM, Strain/Indicator: TA1530, Metabolic Activation: NONE, Method: STANDARD PLATE",inactive; negative
same,mutagenic call,"Test System: AMES SALMONELLA TYPHIMURIUM, Strain/Indicator: TA1530, Metabolic Activation: RAT, LIVER, S-9, AROCLOR 1254, Method: STANDARD PLATE",inactive; negative
same,mutagenic call,[5],inactive; negative
same,mutagenic call,"Test System: AMES SALMONELLA TYPHIMURIUM, Strain/Indicator: TA1537, Metabolic Activation: RAT, LIVER, S-9, AROCLOR 1254, Method: STANDARD PLATE",inactive; negative
CCCCCCc1ccc(O)cc1O,mutagenic call,"End Point: IN VITRO CHROMOSOMAL ABERRATIONS, Test System: CHO CELLS, Metabolic Activation: NONE",inactive; negative
same,mutagenic call,"End Point: IN VITRO CHROMOSOMAL ABERRATIONS, Test System: CHO CELLS, Metabolic Activation: RAT, LIVER, S-9, AROCLOR 1254",inactive; negative
same,mutagenic call,"Test System: AMES SALMONELLA TYPHIMURIUM, Strain/Indicator: TA98, Metabolic Activation: HAMSTER, LIVER, S-9, AROCLOR 1254, Method: PREINCUBATION",inactive; negative
same,mutagenic call,[1],inactive; negative
same,mutagenic call,"Test System: AMES SALMONELLA TYPHIMURIUM, Strain/Indicator: TA98, Metabolic Activation: RAT, LIVER, S-9, AROCLOR 1254, Method: PREINCUBATION",inactive; negative
same,mutagenic call,"Test System: AMES SALMONELLA TYPHIMURIUM, Strain/Indicator: TA100, Metabolic Activation: HAMSTER, LIVER, S-9, AROCLOR 1254, Method: PREINCUBATION",inactive; negative
same,mutagenic call,[3],inactive; negative
same,mutagenic call,"Test System: AMES SALMONELLA TYPHIMURIUM, Strain/Indicator: TA100, Metabolic Activation: RAT, LIVER, S-9, AROCLOR 1254, Method: PREINCUBATION",inactive; negative
same,mutagenic call,"Test System: AMES SALMONELLA TYPHIMURIUM, Strain/Indicator: TA1535, Metabolic Activation: HAMSTER, LIVER, S-9, AROCLOR 1254, Method: PREINCUBATION",inactive; negative
same,mutagenic call,"Test System: AMES SALMONELLA TYPHIMURIUM, Strain/Indicator: TA1535, Metabolic Activation: NONE, Method: PREINCUBATION",inactive; negative
same,mutagenic call,"Test System: AMES SALMONELLA TYPHIMURIUM, Strain/Indicator: TA1535, Metabolic Activation: RAT, LIVER, S-9, AROCLOR 1254, Method: PREINCUBATION",inactive; negative
same,mutagenic call,"Test System: AMES SALMONELLA TYPHIMURIUM, Strain/Indicator: TA1537, Metabolic Activation: HAMSTER, LIVER, S-9, AROCLOR 1254, Method: PREINCUBATION",inactive; negative
same,mutagenic call,"Test System: AMES SALMONELLA TYPHIMURIUM, Strain/Indicator: TA1537, Metabolic Activation: NONE, Method: PREINCUBATION",inactive; negative
same,mutagenic call,"Test System: AMES SALMONELLA TYPHIMURIUM, Strain/Indicator: TA1537, Metabolic Activation: RAT, LIVER, S-9, AROCLOR 1254, Method: PREINCUBATION",inactive; negative
same,mutagenic call,"Test System: MOUSE LYMPHOMA, Strain/Indicator: L5178Y (TK+/TK-), Metabolic Activation: NONE, Method: SUSPENSION/PLATE",inactive; negative
same,mutagenic call,"Test System: MOUSE LYMPHOMA, Strain/Indicator: L5178Y (TK+/TK-), Metabolic Activation: RAT, LIVER, S-9, AROCLOR 1254, Method: SUSPENSION/PLATE",active; positive
C[As](C)O,mutagenic call,"End Point: IN VITRO CHROMOSOMAL ABERRATIONS, Test System: CHINESE HAMSTER V79 CELLS, Metabolic Activation: NONE",active; positive (structural and ploidy changes)
